Measurements: patent US20160045505A1, “COMPOUNDS AND COMPOSITIONS FOR THE TREATMENT OF PARASITIC DISEASES” (NOVARTIS AG, priority 2013, published 2016)
Where two headings read alike, the source gives them in different places.

Assays:
[1] = system: Leishmania donovani axenic amastigote parasites; assay: Leishmania donovani axenic amastigote proliferation assay (Cell TiterGlo luminescence, 2 day incubation); format: cell-based; conditions: Leishmania donovani, read-out: L. donovani amastigotes EC50
[2] = system: L. donovani HU3 strain in mouse peritoneal macrophages; assay: Assay for proliferation of Leishmania parasites in infected mouse peritoneal macrophages (SybrGreen staining, high-content imaging, 5 days); format: cell-based, Leishmania donovani; conditions: L. donovani in mouse peritoneal macrophages, read-out: L. donovani Macrophage EC50
[3] = system: Trypanosoma cruzi amastigotes (Tulahuen strain expressing Lac-Z) cultured in 3T3 fibroblast cells; assay: microbe, parasite or virus in culture; format: cell-based; conditions: Trypanosoma cruzi, TULAHUEN, Fibroblast, T. cruzi amastigotes in 3T3 fibroblast cells; read-out: T cruzi EC50
[4] = axenic amastigotes, inhibition of proliferation
[5] = Leishmania donovani, Peritoneal macrophage, inhibition of proliferation
[6] = Leishmania donovani, Peritoneal macrophage

Row | Structure (SMILES) | EC50 [1, 4] | EC50 [2, 5] | further results
1 | CC(C)OC(=O)Nc1cnc2nc(-c3cccc(NC(=O)N4CCCC4)c3)cn2c1 [Compound 5] | 1080 nM | 4000 nM | 
2 | CC(C)OC(=O)Nc1cnc2nc(-c3cccc(NC(=O)c4cnccn4)c3)cn2c1 [Compound 7] | 2530 nM | 1860 nM | 
3 | CC(C)OC(=O)Nc1cnc2nc(-c3cccc(NC(=O)c4ccco4)c3)cn2c1 [Compound 8] | 1590 nM | 4700 nM | 
4 | CON(C)C(=O)Nc1cccc(-c2cn3cc(NC(=O)OC(C)C)cnc3n2)c1 [Compound 14] |  |  | EC50 ([2]; inhibition of proliferation): 3200 nM
5 | CC(C)OC(=O)Nc1cnc2nc(-c3cc(NC(=O)N4CCCC4)ccc3Cl)c(F)n2c1 [Compound 15, isopropyl (2-(2-chloro-5-(pyrrolidine-1-carboxamido)phenyl)-3-fluoroimidazo[1,2-a]pyrimidin-6-yl)carbamate] | 1500 nM | 2950 nM | 
6 | CC(C)OC(=O)Nc1cnc2nc(-c3cc(NC(=O)N4CCCC4)ccc3F)cn2c1 [Compound 17] | 410 nM | 350 nM | 
7 | CC(C)OC(=O)Nc1cnc2nc(-c3cc([N+](=O)[O-])ccc3F)cn2c1 [Compound 19, isopropyl (2-(2-fluoro-5-nitrophenyl)imidazo[1,2-a]pyrimidin-6-yl)carbamate] | 19100 nM | 46900 nM | 
8 | COCCOC(=O)Nc1cccc(-c2cn3cc(NC(=O)OC(C)C)cnc3n2)c1 [Compound 23] | 7300 nM | 24700 nM | 
9 | O=C(Nc1ccc(Cl)c(-c2cn3cc(-c4ccccc4)cnc3n2)c1)N1CCCC1 [Compound 29] | 36 nM | 152 nM | 
10 | CNc1ccc(-c2cnc3nc(-c4cc(NC(=O)OCCOC)ccc4Cl)cn3c2)cc1 [Compound 36] | 560 nM | 1280 nM | 
11 | Cc1nc(C)c(C(=O)Nc2ccc(F)c(-c3cn4cc(NC(=O)OC(C)C)cnc4n3)c2)o1 [Compound 61] | 245 nM | 715 nM | 
12 | Cc1nc(C(=O)Nc2ccc(F)c(-c3cn4cc(NC(=O)OC(C)C)cnc4n3)c2)c(C)o1 [Compound 62] | 2000 nM | 11600 nM | 
13 | CC(C)OC(=O)Nc1cnc2nc(-c3cc(NC(=O)c4ccc(Cl)o4)ccc3F)cn2c1 [Compound 64, isopropyl (2-(5-(5-chlorofuran-2-carboxamido)-2-fluorophenyl)imidazo[1,2-a]pyrimidin-6-yl)carbamate] | 161 nM | 469 nM | 
14 | CC(C)OC(=O)Nc1cnc2nc(-c3cc(NC(=O)c4cocn4)ccc3F)cn2c1 [Compound 65] | 2040 nM | 9130 nM | 
15 | CC(C)OC(=O)Nc1cnc2nc(-c3cc(NC(=O)c4ccc[nH]4)ccc3F)cn2c1 [Compound 71] | 1890 nM | 3230 nM | 
16 | CC(C)OC(=O)Nc1cnc2nc(-c3cc(NC(=O)c4ccno4)ccc3F)cn2c1 [Compound 72] | 764 nM | 8390 nM | 
17 | CC(C)OC(=O)Nc1cnc2nc(-c3cc(NC(=O)c4cccn4C)ccc3F)cn2c1 [Compound 73] | 1290 nM | 15200 nM | 
18 | CC(C)OC(=O)Nc1cnc2nc(-c3cc(NC(=O)c4cc5cc(Cl)ccc5[nH]4)ccc3F)cn2c1 [Compound 89] | > 25000 nM | > 50000 nM | 
19 | CC(C)OC(=O)Nc1cnc2nc(-c3cc(NC(=O)c4cnc(Br)s4)ccc3F)cn2c1 [Compound 91] | 4610 nM | 24100 nM | 
20 | CC(C)OC(=O)Nc1cnc2nc(-c3cc(NC(=O)c4cc5cccc(F)c5[nH]4)ccc3F)cn2c1 [Compound 93] | > 25000 nM | > 50000 nM | 
21 | CC(C)OC(=O)Nc1cnc2nc(-c3cc(NC(=O)c4cnc(N)o4)ccc3F)cn2c1 [Compound 94] | > 25000 nM | > 50000 nM | 
22 | Cc1ncc(C(=O)Nc2ccc(F)c(-c3cn4cc(NC(=O)OC(C)C)cnc4n3)c2)o1 [Compound 95] | 69 nM | 188 nM | 
23 | CC(C)OC(=O)Nc1cnc2nc(-c3cc(NC(=O)c4ncco4)ccc3F)cn2c1 [Compound 99] | 2980 nM | 9920 nM | 
24 | CC(C)OC(=O)Nc1cnc2nc(-c3cc(NC(=O)c4cnc(Cl)[nH]4)ccc3F)cn2c1 [Compound 100] | > 25000 nM | > 50000 nM | 
25 | CC(C)OC(=O)Nc1cnc2nc(-c3cc(NC(=O)c4ccc(C#N)o4)ccc3F)cn2c1 [Compound 107] | 84 nM | 298 nM | 
26 | CC1=C(C(=O)Nc2cnc3nc(-c4cc(NC(=O)N5CCCC5)ccc4F)cn3c2)OCCO1 [Compound 122] | 80 nM |  | 

Row | Structure (SMILES) | EC50 [1, 4] | EC50 [2, 5] | further results
27 | CC(C)OC(=O)NCc1cnc2nc(-c3cc(NC(=O)c4ccc(F)o4)ccc3F)cn2c1 [Compound 207] | 7140 nM | > 40300 nM | 
28 | CC(C)OC(=O)Nc1cnc2nc(-c3cc(NC(=O)N(C)C)ccc3F)cn2c1 [Compound 219] | 752 nM | 2150 nM | 
29 | CCNC(=O)Nc1ccc(Cl)c(-c2cn3cc(NC(=O)OC(C)C)cnc3n2)c1 [Compound 254] | 6900 nM | > 18300 nM | 
30 | CC(=O)N[C@@H]1CCN(C(=O)Nc2ccc(Cl)c(-c3cn4cc(NC(=O)OC(C)C)cnc4n3)c2)C1 [Compound 271] | > 25000 nM | > 50000 nM | 
31 | CCN(CC)C(=O)Nc1ccc(Cl)c(-c2cn3cc(NC(=O)OC(C)C)cnc3n2)c1 [Compound 274] | 862 nM | 1900 nM | 
32 | CC(C)OC(=O)Nc1cnc2nc(-c3cc(NC(=O)N4CC(F)(F)C4)ccc3F)cn2c1 [Compound 289] | 141 nM | 321 nM | 
33 | CC(C)OC(=O)Nc1cnc2nc(-c3cc(NC(=O)N4CC(S(C)(=O)=O)C4)ccc3F)cn2c1 [Compound 292] | > 25000 nM | > 43500 nM | 
34 | CC(C)OC(=O)Nc1cnc2nc(-c3cc(NC(=O)N4CCC4C(=O)O)ccc3F)cn2c1 (centres unmarked) [Compound 295] | > 25000 nM | > 50000 nM | 
35 | CN(CC(F)(F)F)C(=O)Nc1ccc(F)c(-c2cn3cc(-c4ccccc4)cnc3n2)c1 [Compound 325] | 154 nM | 722 nM | 
36 | CC(C)OC(=O)Nc1ccc(-c2cnc3nc(-c4cc(NC(=O)N5CCCC5)ccc4F)cn3c2)cc1 [Compound 340] | 707 nM | 2120 nM | 
37 | O=C(Nc1ccc(F)c(-c2cn3cc(-c4ccnc(C(F)(F)F)c4)cnc3n2)c1)N1CCCC1 [Compound 341] | 2600 nM | 9430 nM | 
38 | Cc1nc(C)c(C(=O)Nc2ccc(F)c(-c3cn4cc(-c5cnoc5)cnc4n3)c2)o1 [Compound 367] | > 25000 nM | > 50000 nM | 
39 | COC(=O)CN1CCC(c2cnc3nc(-c4cc(NC(=O)c5oc(C)nc5C)ccc4F)cn3c2)CC1 [Compound 539, methyl 2-(4-(2-(5-(2,4-dimethyloxazole-5-carboxamido)-2-fluorophenyl)imidazo[1,2-a]pyrimidin-6-yl)piperidin-1-yl)acetate] |  |  | EC50 ([1]; L. donovani axenic amastigotes): 975 nM; EC50 [3]: 381 nM
40 | O=C(Nc1ccc(F)c(-c2cn3cc(C(F)(F)F)cnc3n2)c1)N1CC(F)C1 [Compound 587, 3-fluoro-N-(4-fluoro-3-(6-(trifluoromethyl)imidazo[1,2-a]pyrimidin-2-yl)phenyl)azetidine-1-carboxamide] |  |  | EC50 ([1]; L. donovani axenic amastigotes): 73 nM; EC50 [2, 6]: 647 nM
41 | Cc1nc(C)c(C(=O)Nc2ccc(F)c(-c3cn4cc(-c5ncccc5C(F)F)cnc4n3)c2)o1 [Compound 588] |  |  | EC50 ([1]; L. donovani axenic amastigotes): 19 nM; EC50 [2, 6]: 459 nM
42 | Cc1nc(C)c(C(=O)Nc2ccc(F)c(-c3cn4cc(-c5ncccc5C(F)(F)F)cnc4n3)c2)o1 [Compound 589] |  |  | EC50 ([1]; L. donovani axenic amastigotes): 22 nM; EC50 [2, 6]: 375 nM
43 | Cc1nc(C)c(C(=O)Nc2ccc(F)c(-c3cn4cc(CC(C)C)cnc4n3)c2)o1 [Compound 590, N-(4-fluoro-3-(6-isobutylimidazo[1,2-a]pyrimidin-2-yl)phenyl)-2,4-dimethyloxazole-5-carboxamide] |  |  | EC50 ([1]; L. donovani axenic amastigotes): 24 nM; EC50 [2, 6]: 45 nM
44 | Cc1nc(C)c(C(=O)Nc2ccc(F)c(-c3cn4cc(CC(C)(C)C)cnc4n3)c2)o1 [Compound 591] |  |  | EC50 ([1]; L. donovani axenic amastigotes): 28 nM; EC50 [2, 6]: > 50000 nM
45 | Cc1nc(C)c(C(=O)Nc2ccc(F)c(-c3cn4cc(CC5CCC5)cnc4n3)c2)o1 [Compound 613, N-(3-(6-(cyclobutylmethyl)imidazo[1,2-a]pyrimidin-2-yl)-4-fluorophenyl)-2,4-dimethyloxazole-5-carboxamide] |  |  | EC50 ([1]; L. donovani axenic amastigotes): 30 nM; EC50 [2, 6]: > 50000 nM
46 | Cc1nc(C)c(C(=O)Nc2ccc(F)c(-c3cn4cc(CC5OCCO5)cnc4n3)c2)o1 [Compound 614] |  |  | EC50 ([1]; L. donovani axenic amastigotes): 389 nM; EC50 [2, 6]: > 50000 nM
47 | Cc1nc(C)c(C(=O)Nc2ccc(F)c(-c3cn4cc(C5C6CCCC5C6)cnc4n3)c2)o1 (centres unmarked) [Compound 615] |  |  | EC50 ([1]; L. donovani axenic amastigotes): 82 nM
48 | Cc1nc(C)c(C(=O)Nc2ccc(F)c(-c3cn4cc(CN5CCOCC5)cnc4n3)c2)o1 [Compound 616, N-(4-fluoro-3-(6-(morpholinomethyl)imidazo[1,2-a]pyrimidin-2-yl)phenyl)-2,4-dimethyloxazole-5-carboxamide] |  |  | EC50 ([1]; L. donovani axenic amastigotes): 602 nM; EC50 [2, 6]: > 50000 nM
49 | Cc1nc(C)c(C(=O)Nc2ccc(F)c(-c3cn4cc(CN(C)C)cnc4n3)c2)o1 [Compound 617] |  |  | EC50 ([1]; L. donovani axenic amastigotes): 3440 nM
50 | Cc1nc(C)c(C(=O)Nc2ccc(F)c(-c3cn4cc(C(C)N5CCOCC5)cnc4n3)c2)o1 (centres unmarked) [Compound 618, N-(4-fluoro-3-(6-(1-morpholinoethyl)imidazo[1,2-a]pyrimidin-2-yl)phenyl)-2,4-dimethyloxazole-5-carboxamide] |  |  | EC50 ([1]; L. donovani axenic amastigotes): 903 nM; EC50 [2, 6]: 691 nM
51 | Cc1nc(C)c(C(=O)Nc2ccc(F)c(-c3cn4cc(C(C)N(C)C)cnc4n3)c2)o1 (centres unmarked) [Compound 619] |  |  | EC50 ([1]; L. donovani axenic amastigotes): 6350 nM; EC50 [2, 6]: 929 nM
